Experimental data: patent publication US12673104B2, “Cleavable polymer drug conjugates” (RS ARASTIRMA EGITIM DANISMANLIK ILAC SANAYI TICARET ANONIM …, priority 2016, dated 2026)

Assay: Pharmacokinetic study (plasma total DTX)
Assay type: in vivo
Settings: total DTX in plasma
Protocol: PEGMEMA-DTX conjugates having 50 kDa and 85 kDa molecular weight were subjected to pharmacokinetic testing and its pharmacokinetic profile was compared with that of free DTX.
Pharmacokinetic parameters for total DTX were calculated using the plasma total DTX concentration values of polymer drug conjugates and free DTX. Half-life, volume of distribution (VDβ), clearance (CL), and total area under the curve (AUC total) were calculated.
In order to provide similarity the HPMA-GFLG-DTX polymer was prepared without RGDfK targeting group.

AUC total: 10 ± 3 µg·h/mL
clearance (read-out: CL (clearance) (converted)): 2.34 mL/min
half-life (read-out: Half Life (β) (converted)): 187 ± 52.8 min
Vd (read-out: VDβ (volume of distribution)): 0.664 ± 0.258 L
Structure (SMILES): CC(=O)O[C@@]12CO[C@@H]1C[C@H](O)[C@@]1(C)C(=O)[C@H](O)C3=C(C)[C@@H](OC(=O)[C@H](O)[C@@H](NC(=O)OC(C)(C)C)c4ccccc4)C[C@@](O)([C@@H](OC(=O)c4ccccc4)[C@H]21)C3(C)C [Free DTX, Docetaxel]
